Measurements as given in US6262023A, “WD-40 derived peptides and uses thereof” (The Board of Trustees of the Leland Stanford Junior …, priority 1995, dated 2001).
“Also recorded” adds a separate entry of the source.

What was measured:
βPKC [1] = target: T1, βPKC (Rattus norvegicus, UniProt P68403); test: Overlay assay: binding of PKC to immobilized recombinant RACK1; design: from tissue; host or cells: PKC from rat brain; RACK1 made in-house in TB1 E. coli (pMAL-c2)
Protocol: (§1) Purified recombinant RACK1 protein (100-250 μg per lane, produced as detailed in Example 2) was subjected to SDS/PAGE and blotted onto nitrocellulose membranes (Ausubel). The nitrocellulose membranes were cut into strips, which were incubated for 0.5 hr in overlay buffer (Example 1) in the presence or absence of a mixture of PKC isozymes (α, β, γ, ε and .zeta., ~10 nM each final concentration) and PKC activators (60 μg/ml phosphatidylserine (PS), 2 μg/ml diacylglycerol (DG), and 1 mM CaCl2). Unbound material was removed by five washes, 5-min each, in overlay wash buffer. Where indicated, PKC activators were present during the incubation of PKC with the nitrocellulose strips. The conditions for each sample and corresponding results are presented in part D below.
PKC bound to RACK1 immobilized on nitrocellulose strips was detected as follows. […]
The concentration dependence of PKC binding to RACK1 was characterized with βPKC, since this isozyme is a major component of the PKC mixture used for the overlay assay. The mean half maximal binding was ~0.375 nM, and maximal binding was ~4 nM (n=3; values reflect binding of βPKC isozyme in the presence of other PKC isozymes and was determined by scanning autoradiograms in the linear range of detection, as described in Mochly-Rosen, et al., (1991).

PKC binding to RACK1 = test: Overlay / overlay-extraction assay: inhibition of PKC binding to recombinant RACK1 by peptides; design: species or system rat; settings: for inhibition of the binding of PKC to RACK1, peptides rI-rVII: overlay assay, concentration not given
Protocol: as §1
The variation in the overlay protocol consisted of incubating the putative binding peptides with a mixture of PKC isozymes for 15 minutes at room temperature before the mixture was used to contact the nitrocellulose strips containing immobilized RACK1.
Nitrocellulose strips containing immobilized RACK1, that had been contacted with a solution containing a mixture of PKC isozymes, were washed and the area corresponding to the 36 kDa (RACK1-containing) band was cut out. The pieces (containing PKC/RACK1 complexes) were incubated with sample buffer for 10 minutes at 80° C. The sample buffer and the nitrocellulose pieces were then placed in wells in the PAGE gel and subjected to SDS-PAGE to elute the bound proteins. The gel was blotted onto nitrocellulose and a Western blot analysis was carried out using the mixture of antibodies (specific for PKC α, β, γ, δ, ε and .zeta. isozymes) described in Example 1 part B. Bound antibodies were detected by ^125 I-protein A.
Peptides derived from or homologous to WD-40 repeats of RACK1 were tested for their ability to inhibit PKC binding to recombinant RACK1. Binding of PKC to RACK1 was carried out using a variation of the overlay procedure described in Example 3 part B. In the experimental samples, peptides were incubated with a solution containing a mixture of rat brain PKC isozymes (~10 nM each) for 15 minutes at room temperature.
Following completion of the modified overlay protocol, the samples were subjected to the overlay-extraction protocol detailed in part B, above.

[2] = system: PKC-mediated germinal vesicle breakdown (GVBD) in Xenopus oocytes; test: PKC-mediated Xenopus oocyte maturation (germinal vesicle breakdown, GVBD) after peptide microinjection; type: cell-based
Protocol: Exposure to insulin induces maturation in Xenopus oocytes via a PKC-dependent pathway (Smith, et al., 1992). The maturation response may be quantified by monitoring the appearance of a white spot in the animal hemisphere of the oocyte, indicating germinal vesicle breakdown (GVBD) and maturation. To assess the effects of RACK1 WD-40-derived peptides on insulin-induced PKC-mediated maturation, 50 nl of a 20 mM NaCl solution containing the indicated peptides [peptide I (SEQ ID NO:1; .circle-solid.), peptide rVI (SEQ ID NO:7; .box-solid.), or injection solution (.quadrature.)] […] One hour following the peptide injections, the oocytes were exposed to a solution containing insulin (8.25 μg/ml) for 2 minutes (t=0). 10-15 oocytes were used for each sample.
The data, representative of three independent experiments, are expressed as the percent of oocytes with GVBD following insulin exposure and are plotted as a function of time in FIG. 5.

PKC [3] = test: Histone type IIIs phosphorylation by PKC; type: biochemical; settings: peptide rVI 10 μM; PKC ~10 nM
Protocol: Histone type IIIs (Sigma Chemical Company, St. Louis, Mo.) was phosphorylated by PKC (~10 nM) in the absence (lane 1) and presence of peptide rVI (10 μM) (lanes 2 and 3) and in the presence and absence of DG (0.8 μg/ml), PS (50 μg/ml) and CaCl2 (1 mM) (lane 3). The results are expressed as percentage of control that is the amount of Histone phosphorylation by PKC in the presence of DG (0.8 μg/ml), PS (50 μg/ml) and CaCl2 (1 mM). The results are the average±SEM of two independent experiments. PKC was first incubated with the peptide rVI (10 μM) for 15 minutes in overlay buffer as described above. Histone type IIIs (40 μg/ml) was added in Tris-HCl (20 mM), MgCl2 (20 mM), ATP (20 μM) and [γ-^32 P]ATP (5 μci/ml) with or without PS (50 μg/ml), DG (0.8 μg/ml) and CaCl2 (1 mM). Histone phosphorylation was determined by autoradiography as above.

βPKC [4] = target: T1, βPKC; test: Sensitivity of βPKC to Arg-C endopeptidase (nicking); type: biochemical; design: All the solutions contained 5 nM rat brain PKC in peptide overlay buffer; from tissue; host or cells: rat brain; settings: 2.5 μg/ml PS and 50 μM CaCl2; peptide 10 μM; Arg-C 5 units/ml
Text: Upon activation of PKC, a pseudosubstrate autoinhibitory sequence at the N-terminus of the molecule dissociates from the catalytic site and becomes sensitive to endopeptidase Arg-C (Orr, et al.). In the absence of PKC activators, exposure of the 80 kDa βPKC to endopeptidase Arg-C has no effect on the enzyme (see FIG. 7, lane 1). In the presence of the PKC activators PS, DG and calcium, however, exposure of βPKC to Arg-C results in a "nicking" of the PKC (i.e. limited proteolysis generating a 78 kDa fragment and several small fragments (see FIG. 7, lane 2)). Continued exposure to Arg-C results in the disappearance of βPKC (Orr, et al.). The present experiment tests whether peptides derived from the WD-40 region of RACK1 alter the sensitivity of βPKC to endopeptidase Arg-C.
The methods used to assay Arg-C sensitivity are a modification of methods described by Orr, et al. Rat brain PKC (~5 nM) was incubated at room temperature in 500 μl of 20 mM Tris-HCl buffer (pH 7.5) alone or with Arg-C (5 units/ml) in the presence or absence of the indicated peptides (final concentration 10 μM or as indicated), PS, DG, and calcium (as indicated). 50 μl aliquots were removed into 20 μl of sample buffer during the reaction as indicated (samples in all the lanes were incubated for 30 minutes, except lanes 5, and 6, which were incubated for 5 and 15 minutes, respectively). The samples were boiled for 10 minutes at 80° C. and loaded onto 8% SDS-PAGE. βPKC was detected by Western blot analysis using anti-βPKC antibodies as described in Examples 6 and 8.
PKC was incubated for the indicated time alone (lane 1) or in the presence of Arg-C (lanes 2-9), with DG (0.8 μg/ml), PS (50 μg/ml) and CaCl2 (1 mM; lane 2), with PS (50 μg/ml) and CaCl2 (1 mM; lane 3), with PS (2.5 μg/ml) and CaCl2 (50 μM; lane 4); with PS (2.5 μg/ml), CaCl2 (50 μM) and with either peptide rVI (SEQ ID NO:7; 10 μM; lanes 5-7), control peptide (SEQ ID NO: 9; lane 8) or with peptide I (SEQ ID) NO:1; lane 9).

δ and εPKC isozymes = test: PKC isozyme translocation and degradation in cardiac myocytes; type: cell-based, rat
Text: This peptide-induced translocation was followed by degradation of δ and εPKC isozymes.

PKC [5] = test: PKC autophosphorylation; type: biochemical, rat; settings: 10 μM peptide; no PS, DG, calcium
Protocol: Rat brain PKC (~10 nM) was incubated with mild agitation in a final volume of 250 μl of overlay buffer, as in Example 1 either with anti-βPKC pseudosubstrate antibodies (1:10 dilution, Life Technologies, Gaithersburg, Md.) or with the indicated peptide (10 μM). Where indicated, PS (50 μg/ml), DG (0.8 μg/ml) and CaCl2 (1 mM) were also added. The amount of autophosphorylation was determined after 2 hours for the reaction with the anti-pseudosubstrate antibodies, or after 15 minutes for the other samples. 50 μl of a buffer comprised of 20 mM Tris-HCl (pH 7.5), 20 mM MgCl2, 20 μM ATP and 5 μci/ml [γ-^32 P]ATP. The mixture was incubated for 15 minutes at room temperature and the reaction was stopped by adding 60 μl sample buffer (see Example 9). The samples were then boiled for 10 minutes, loaded onto a 10% SDS-PAGE mini gel and electrophoresed. The gel was fixed with 50% methanol and 10% acetic acid for 1 hour, and the autophosphorylation of PKC was determined by autoradiography.

[6] = peptide introduced into cardiac myocytes
[7] = 50 μM peptide microinjected, insulin 8.25 μg/ml

Compound: maltose binding protein
- binding of PKC to control proteins (βPKC [1]): did not bind PKC

Compound: peptide rV: synthetic peptide based on the corresponding region in WD-40 repeat V of RACK1 (GYLNTVT)
- inhibition of the binding of PKC to RACK1, peptides rI-rVII (PKC binding to RACK1): lesser inhibitory effect

Compound: peptide rI: synthetic peptide based on the corresponding region in WD-40 repeat I of RACK1 (VTQIATT)
- inhibition of the binding of PKC to RACK1, peptides rI-rVII (PKC binding to RACK1): effective inhibitors

Compound: rIV: synthetic peptide based on the corresponding region in WD-40 repeat IV of RACK1 (VSCVRFS)
- inhibition of the binding of PKC to RACK1, peptides rI-rVII (PKC binding to RACK1): lesser inhibitory effect

Compound: peptide rIII: seven amino acid peptide identical to a segment of RACK1 WD-40 repeat III (DVLSVAF)
- relative effectiveness in inhibiting PKC binding to RACK1 (PKC binding to RACK1; 10 μM peptide): somewhat more effective than peptide rVI
- inhibition of PKC binding to RACK1 (FIG. 3) (PKC binding to RACK1; 10 μM peptide preincubated with PKC): inhibit the binding of PKC to RACK1
- inhibition of the binding of PKC to RACK1, peptides rI-rVII (PKC binding to RACK1): inhibited the binding of PKC to RACK1
- effect on insulin-induced oocyte maturation ([2]; peptide microinjected (rVI 50 μM; rIII 50 and 500 μM)): enhances insulin-induced oocyte maturation; also recorded: potentiated the effects of insulin on oocyte maturation
- fraction of oocytes exposed to insulin that reach maturation ([2]; peptide microinjected, insulin): ~100%
- induction of PKC-mediated histone phosphorylation in the absence of PS, DG and calcium (PKC [3]): similarly induced histone phosphorylation
- nicking of βPKC by Arg-C (78 kDa fragment) at low concentrations of activators (βPKC [4]): resulted in the appearance of the 78 kDa nicked PKC fragment
- effect on NE-induced translocation of PKC isozymes (δ and εPKC isozymes; norepinephrine 2 μM, peptide introduced into cardiac myocytes): further enhanced
- degradation of δ and εPKC isozymes (δ and εPKC isozymes; [6]): followed by degradation of these activated isozymes
- translocation / distribution of δ and εPKC isozymes in the absence of hormone stimulation (δ and εPKC isozymes; [6]): caused an immediate translocation of δ and εPKC isozymes

Compound: control peptide: control peptide (SEQ ID NO:9) used as negative control (LKGKIL) [reference compound]
- delay to onset of maturation after exposure to insulin [2, 7]: 4 to 5 h
- time at which plateau of GVBD is reached [2, 7]: 10 to 12 h
- plateau of % GVBD following insulin exposure ([2]; 50 nl of 50 μM peptide microinjected, insulin 8.25 μg/ml): 85-90 % GVBD
- induction of PKC autophosphorylation in the absence of PKC activators (PKC [5]): Neither peptide I nor control peptide induced PKC autophosphorylation
- nicking of βPKC by Arg-C (78 kDa fragment) at low concentrations of activators (βPKC [4]): nicking of βPKC did not occur

Compound: peptide rII: synthetic peptide based on the corresponding region in WD-40 repeat II of RACK1 (FVSDVVI)
- inhibition of the binding of PKC to RACK1, peptides rI-rVII (PKC binding to RACK1): effective inhibitors

Compound: peptide rVII: synthetic peptide based on the corresponding region in WD-40 repeat VII of RACK1 (PQCTSLA)
- inhibition of the binding of PKC to RACK1, peptides rI-rVII (PKC binding to RACK1): no inhibition

Compound: NC[C@H](O)c1ccc(O)c(O)c1 [norepinephrine, reference compound]
- translocation of δ and εPKC isozymes from the cytosolic to the particulate fraction (δ and εPKC isozymes; NE, 2 μM): causes translocation of δ and εPKC isozymes from the cytosolic to the particulate fraction
